Laboratory results as given in ChEMBL document CHEMBL1141464, “Rational design of the first small-molecule antagonists of NHERF1/EBP50 PDZ domains” (Bioorg Med Chem Lett, 2008).
Active and inactive are the calls of the source. No cut-off for these calls is given here.

Assays:
[1] = target: Beta-2 adrenergic receptor (Homo sapiens) (UniProt P07550); experiment: Binding affinity to GST tagged human beta 2 adrenergic receptor PDZ1 domain upto 300 uM
[2] = target: Cystic fibrosis transmembrane conductance regulator (Homo sapiens) (UniProt P13569); experiment: Binding affinity to GST tagged human CFTR PDZ2 domain upto 300 uM
Cystic fibrosis transmembrane conductance regulator (Homo sapiens), sequence (P13569 whole entry, looked up, the tested form may be a part): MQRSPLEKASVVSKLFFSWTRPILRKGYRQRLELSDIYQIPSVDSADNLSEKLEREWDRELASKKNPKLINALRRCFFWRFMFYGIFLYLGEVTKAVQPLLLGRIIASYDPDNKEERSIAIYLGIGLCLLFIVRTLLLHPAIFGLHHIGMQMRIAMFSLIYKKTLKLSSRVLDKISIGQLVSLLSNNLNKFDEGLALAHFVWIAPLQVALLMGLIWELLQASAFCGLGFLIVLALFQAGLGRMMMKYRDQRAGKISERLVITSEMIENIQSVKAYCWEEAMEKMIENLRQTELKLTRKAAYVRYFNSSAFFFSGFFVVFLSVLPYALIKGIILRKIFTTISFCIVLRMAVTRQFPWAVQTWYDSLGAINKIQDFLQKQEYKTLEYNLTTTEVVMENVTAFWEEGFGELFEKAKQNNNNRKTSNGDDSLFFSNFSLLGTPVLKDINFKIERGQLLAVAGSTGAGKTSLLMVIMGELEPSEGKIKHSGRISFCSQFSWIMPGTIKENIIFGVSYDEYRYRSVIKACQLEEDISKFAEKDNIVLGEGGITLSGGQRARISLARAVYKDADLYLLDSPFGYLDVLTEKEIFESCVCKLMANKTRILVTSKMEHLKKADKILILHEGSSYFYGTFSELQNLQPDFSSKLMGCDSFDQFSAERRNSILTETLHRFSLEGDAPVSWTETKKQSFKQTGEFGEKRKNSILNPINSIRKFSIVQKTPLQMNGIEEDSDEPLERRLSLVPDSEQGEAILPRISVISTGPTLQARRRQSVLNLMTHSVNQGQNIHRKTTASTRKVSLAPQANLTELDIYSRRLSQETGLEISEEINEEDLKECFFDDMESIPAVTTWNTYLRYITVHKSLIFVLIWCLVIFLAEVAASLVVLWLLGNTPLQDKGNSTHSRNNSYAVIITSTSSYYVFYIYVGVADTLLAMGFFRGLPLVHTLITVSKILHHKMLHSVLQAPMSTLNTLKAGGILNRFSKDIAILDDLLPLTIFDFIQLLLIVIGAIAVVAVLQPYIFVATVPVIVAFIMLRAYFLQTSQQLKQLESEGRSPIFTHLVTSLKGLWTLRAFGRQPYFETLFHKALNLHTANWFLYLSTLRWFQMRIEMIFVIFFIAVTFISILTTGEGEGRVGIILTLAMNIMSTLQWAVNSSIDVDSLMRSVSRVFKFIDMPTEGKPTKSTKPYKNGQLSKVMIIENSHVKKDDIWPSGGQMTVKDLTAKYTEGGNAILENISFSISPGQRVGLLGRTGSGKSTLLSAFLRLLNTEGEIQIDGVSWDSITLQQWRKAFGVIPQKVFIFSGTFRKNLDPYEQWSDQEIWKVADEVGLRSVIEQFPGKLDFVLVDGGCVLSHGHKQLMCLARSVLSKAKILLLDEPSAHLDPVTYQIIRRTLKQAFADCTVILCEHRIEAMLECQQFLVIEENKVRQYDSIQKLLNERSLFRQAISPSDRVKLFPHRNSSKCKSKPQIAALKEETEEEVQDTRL

Beta-2 adrenergic receptor (Homo sapiens), sequence (P07550 whole entry, looked up, the tested form may be a part): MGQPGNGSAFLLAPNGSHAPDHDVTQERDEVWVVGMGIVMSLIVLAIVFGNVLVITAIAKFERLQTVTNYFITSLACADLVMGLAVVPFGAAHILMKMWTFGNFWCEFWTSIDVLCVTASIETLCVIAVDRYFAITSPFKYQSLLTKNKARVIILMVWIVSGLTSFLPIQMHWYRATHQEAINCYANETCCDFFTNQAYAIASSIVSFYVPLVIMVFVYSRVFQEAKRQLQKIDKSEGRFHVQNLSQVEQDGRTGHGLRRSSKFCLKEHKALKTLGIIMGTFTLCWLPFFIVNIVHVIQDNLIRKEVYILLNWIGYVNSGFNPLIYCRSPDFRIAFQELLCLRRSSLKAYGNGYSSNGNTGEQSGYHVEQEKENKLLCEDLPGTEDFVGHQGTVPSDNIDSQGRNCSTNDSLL

SMILES: CCCNC(=O)c1[nH]c2cc(C)c(C(=O)O)cc2c1CCc1ccccc1
- Activity [1]: inactive
- Activity [2]: inactive
